Several values for one entry are separate records, joined by “and”; a condition that tells them apart may be missing. Equal values may be shown once. Read-outs that look alike come from different tables or passages of the source. Peptide text beside a SMILES is read from it.
Assays:
[1] = tested on: Pseudomonas aeruginosa (Pa) biofilm; test: static abiotic solid surface (microtiter, crystal violet) / Bioflux biofilm inhibition screen; assay type: cell-based
Method: FIG. 1. Identification of new anti-biofilm peptides active against P. aeruginosa using the microtiter plate screening method with crystal violet staining. […] As a control peptide 1037 was utilized [de la Fuente Nunez et al. 2011].
Methods of assessment of anti-biofilm activity—Biofilm formation was initially analyzed using a static abiotic solid surface assay as described elsewhere (de la Fuente-Nunez et al., 2012). Dilutions (1/100) of overnight cultures were incubated in BM2 biofilm-adjusted medium [62 mM potassium phosphate buffer (pH 7), 7 mM (NH4)2SO4, 2 mM MgSO4, 10 μM FeSO4, 0.4% (wt/vol) glucose, 0.5% (wt/vol) Casamino Acids], or a nutrient medium such as Luria Broth, in polypropylene microtiter plates (Falcon, United States) in the absence (control) or presence of peptide. Peptide was added at time zero (prior to adding the diluted, overnight cultures) in varying concentrations, and the decrease in biofilm formation was recorded at 22-46 h for most bacteria. Planktonic cells were removed, biofilm cells adhering to the side of the tubes were stained with crystal violet, and absorbance at 595 nm was measured using a microtiter plate reader (Bio-Tek Instruments Inc., United States). Some peptides were screened against two Gram negative organisms, P. aeruginosa and K. pneumoniae using a Bioflux apparatus (AutoMate Scientific, Berkeley, Calif.; http://www.autom8.com/bioflux_biofilm.html), which allows for the high-throughput, real-time analysis of biofilms.

[2] = tested on: methicillin resistant S. aureus (Sa) biofilm; assay type: cell-based, Staphylococcus aureus; settings: peptide 5 μg/ml
Salmonella biofilm = test: checkerboard titration biofilm synergy (FIC); assay type: cell-based; settings: for Fold decrease in antibiotic MIC in the presence of peptide: peptide DJK5
Method: (§1) Peptides and various conventional antibiotics were analyzed by checkerboard titration into microtiter trays using CLSI methods (Wiegand, I., K. Hilpert, and R. E. W. Hancock. 2008. Nature Protocols 3:163-175), bacteria added and, after overnight incubation at 37° C., the residual biofilm assessed by the crystal violet method mentioned in the body of the grant, with an A595 of 0.2 considered as 100% biofilm inhibition. The effects of the peptide in reducing the minimal biofilm inhibitory concentration (MBIC) of the antibiotic and vice versa were assessed using the Fractional Inhibitory Concentration (FIC) method whereby ΣFTC=FICA+FICB=(CA/MICA)+(CB/MICB), where MBICA and MBICB are the MBICs of peptide A and antibiotic B alone, respectively, and CA and CB (expressed in μg/ml) are the MICs of the drugs in combination. This conventional clinical microbiology assay is interpreted as follows

A. baumannii biofilm = test: checkerboard titration biofilm synergy (FIC); assay type: cell-based; settings: for Fold decrease in antibiotic MIC in the presence of peptide: peptide DJK5
Method: as §1

K. pneumoniae biofilm = test: checkerboard titration biofilm synergy (FIC); assay type: cell-based; settings: for Fold decrease in antibiotic MIC in the presence of peptide: peptide DJK5
Method: as §1

P. aeruginosa biofilms = settings: P. aeruginosa biofilm
Method: as §1

E. coli biofilms = test: checkerboard titration biofilm synergy (MBIC, FIC); assay type: cell-based; settings: for MBIC: compound alone; for Fold decrease in antibiotic concentration: in the presence of peptide 1018; for Fold decrease in antibiotic concentration / antibiotic MIC: in the presence of peptide DJK5
Method: as §1

S. aureus biofilms = test: checkerboard titration biofilm synergy (MBIC, FIC); assay type: cell-based; settings: for MBIC: compound alone; for Fold decrease in antibiotic concentration / antibiotic MIC: in the presence of peptide DJK5
Method: as §1

[3] = antibiotic in combination with peptide 1018
[4] = antibiotic in combination with peptide DJK5
[5] = in combination with peptide 1018
[6] = in combination with peptide DJK5
[7] = in the presence of peptide 1018

Row | Compound | % Biofilm Inhibition Sa [2] | FIC (Salmonella biofilm; [3]) | FIC (Salmonella biofilm; [4]) | Fold decrease in antibiotic MIC in the presence of peptide (Salmonella biofilm) | FIC (A. baumannii biofilm; [3]) | FIC (A. baumannii biofilm; [4]) | Fold decrease in antibiotic MIC in the presence of peptide (A. baumannii biofilm) | FIC (K. pneumoniae biofilm; [3]) | FIC (K. pneumoniae biofilm; [4]) | Fold decrease in antibiotic MIC in the presence of peptide (K. pneumoniae biofilm) | FIC (P. aeruginosa biofilms; [3]) | FIC (P. aeruginosa biofilms; [4]) | Concentration of antibiotic at the FIC (P. aeruginosa biofilms; [5]) | Concentration of antibiotic at the FIC (P. aeruginosa biofilms; [6]) | FIC (E. coli biofilms; [3]) | FIC (E. coli biofilms; [4]) | MBIC (E. coli biofilms) | concentration of antibiotic at FIC (E. coli biofilms; [5]) | concentration of antibiotic at FIC (E. coli biofilms; [6]) | Fold decrease in antibiotic concentration (E. coli biofilms) | also measured
1 | CC[C@H](C)[C@H](N)C(=O)N[C@@H](CC(C)C)C(=O)N1CCC[C@H]1C(=O)N[C@@H](Cc1c[nH]c2ccccc12)C(=O)N[C@@H](CCCCN)C(=O)N[C@@H](Cc1c[nH]c2ccccc12)C(=O)N1CCC[C@H]1C(=O)N[C@@H](Cc1c[nH]c2ccccc12)C(=O)N[C@@H](Cc1c[nH]c2ccccc12)C(=O)N1CCC[C@H]1C(=O)N[C@@H](Cc1c[nH]c2ccccc12)C(=O)N[C@@H](CCCNC(=N)N)C(=O)N[C@@H](CCCNC(=N)N)C(N)=O [Indolicidin, reference compound] | 48% |  |  |  |  |  |  |  |  |  |  |  |  |  |  |  |  |  |  |  | % Biofilm Inhibition Pa ([1]; Pa) biofilm, 10 μg/ml): 29%
2 | CC[C@H](C)[C@H](N)C(=O)N[C@@H](CC(C)C)C(=O)N[C@@H](CCCCN)C(=O)N[C@@H](CCCCN)C(=O)N[C@@H](Cc1c[nH]c2ccccc12)C(=O)N1CCC[C@H]1C(=O)N[C@@H](Cc1c[nH]c2ccccc12)C(=O)N[C@@H](Cc1c[nH]c2ccccc12)C(=O)N1CCC[C@H]1C(=O)N[C@@H](Cc1c[nH]c2ccccc12)C(=O)N[C@@H](CCCNC(=N)N)C(=O)N[C@@H](CCCNC(=N)N)C(=O)N[C@@H](CCCCN)C(N)=O [Peptide 11CN] (H-ILKKWPWWPWRRK-NH2; N-terminus assumed) | 32% |  |  |  |  |  |  |  |  |  |  |  |  |  |  |  |  |  |  |  | 
3 | CC[C@H](C)[C@H](NC(=O)[C@H](CCCNC(=N)N)NC(=O)[C@H](C)NC(=O)[C@@H](NC(=O)[C@H](CC(C)C)NC(=O)[C@H](CCCNC(=N)N)NC(=O)[C@H](CCCNC(=N)N)NC(=O)[C@@H](NC(=O)[C@@H](NC(=O)[C@H](CCCNC(=N)N)NC(=O)[C@@H](N)CCCCN)[C@@H](C)CC)C(C)C)C(C)C)C(=O)N[C@H](C(N)=O)C(C)C [Peptide 1017] (H-KRIVRRLVARIV-NH2; N-terminus assumed) | 21% |  |  |  |  |  |  |  |  |  |  |  |  |  |  |  |  |  |  |  | % Biofilm Inhibition Pa ([1]; peptide 10 μg/ml): 26%
4 | C[C@@H](O)[C@H]1C(=O)N2C(C(=O)O)=C(SCCN=CN)C[C@H]12 [Imipenem] |  | 1 | 1 | 2X | 0.53 | 0.75 | 2X | 0.53 | 1 | 64X | 0.502 and 0.5 | 0.51 and 0.5 | 0.8 µg/mL | 0.8 µg/mL | 0.75 | 1 | 6.4 µg/mL | 1.6 µg/mL | 0.1 µg/mL | 4X | Fold decrease in antibiotic concentration / antibiotic MIC (E. coli biofilms): 64X; FIC (S. aureus biofilms; [3]): 0.25; FIC (S. aureus biofilms; [4]): 0.52; MBIC (S. aureus biofilms): >102.4 µg/mL; concentration of antibiotic at FIC (S. aureus biofilms; [5]): 25.6 µg/mL; concentration of antibiotic at FIC (S. aureus biofilms; [6]): 3.2 µg/mL; Fold decrease in antibiotic concentration (S. aureus biofilms; [7]): 4X; Fold decrease in antibiotic concentration / antibiotic MIC (S. aureus biofilms): 32X
5 | NC[C@H]1O[C@H](O[C@H]2[C@H](O)[C@@H](O[C@H]3O[C@H](CO)[C@@H](O)[C@H](N)[C@H]3O)[C@H](N)C[C@@H]2N)[C@H](N)C[C@@H]1O [Tobramycin] |  | 0.75 | 1.03 | 32X | 0.38 | 0.56 | 16X | 0.31 | 0.75 | 4X | 0.502 and 0.5 | 0.51 and 0.5 | 1.6 µg/mL | 1.6 µg/mL | 0.375 and 0.38 | 0.5625 and 0.56 | 6.4 µg/mL | 1.6 µg/mL | 0.4 µg/mL | 4X | Fold decrease in antibiotic concentration / antibiotic MIC (E. coli biofilms): 16X; FIC (S. aureus biofilms; [3]): 0.52 and 0.5; FIC (S. aureus biofilms; [4]): 1; MBIC (S. aureus biofilms): >102.4 µg/mL; concentration of antibiotic at FIC (S. aureus biofilms; [5]): 1.6 µg/mL; concentration of antibiotic at FIC (S. aureus biofilms; [6]): 1.6 µg/mL; Fold decrease in antibiotic concentration (S. aureus biofilms; [7]): 64X; Fold decrease in antibiotic concentration / antibiotic MIC (S. aureus biofilms): 64X
6 | CC(C)(O/N=C(\C(=O)N[C@@H]1C(=O)N2C(C(=O)[O-])=C(C[n+]3ccccc3)CS[C@H]12)c1csc(N)n1)C(=O)O [Ceftazidime] |  | 0.31 | 0.75 | 4X | 0.37 | 0.75 | 2X | 0.75 | 0.89 | 16X | 0.38 | 0.51 and 0.5 | 1.4 µg/mL | 0.8 µg/mL | 1 | 0.542 and 0.54 | 0.4 µg/mL | 0.1 µg/mL | 0.2 µg/mL | 4X | Fold decrease in antibiotic concentration / antibiotic MIC (E. coli biofilms): 2X; FIC (S. aureus biofilms; [3]): 0.16; FIC (S. aureus biofilms; [4]): 0.375 and 0.38; FIC (S. aureus biofilms; antibiotic in combination with peptide DJK6): 0.4; MBIC (S. aureus biofilms): 256 µg/mL; concentration of antibiotic at FIC (S. aureus biofilms; [5]): 8-8 μg/ml; concentration of antibiotic at FIC (S. aureus biofilms; [6]): 32 µg/mL; Fold decrease in antibiotic concentration (S. aureus biofilms; [7]): 32X; Fold decrease in antibiotic concentration / antibiotic MIC (S. aureus biofilms): 8X; Fold decrease in antibiotic concentration (S. aureus biofilms; in the presence of peptide DJK6): 8
